According to patent US9006235B2, “Inhibitors of human immunodeficiency virus replication” (priority 2012, dated 2015):
pEC50: −log10 of the molar value. Read-outs that look alike come from different tables or passages of the source.

Tested on: recombinant NL-Rluc virus
Assay: Inhibition of HIV replication (NL-Rluc virus, luciferase readout in MT-2 cells)
Type: cell-based
Settings: Human immunodeficiency virus 1, MT2, 120 h

Structure (SMILES) | pEC50 (read-out: Activity) | other results
Cc1nc2cc(N(CCC(C)(C)C)CCC(C)(C)C)nn2c(-c2cc(F)c3c(c2C)CCCO3)c1[C@H](OC(C)(C)C)C(=O)O [Example 46, (2S)-2-(2-(bis(3,3-dimethylbutyl)amino)-7-(8-fluoro-5-methylchroman-6-yl)-5-methylpyrazolo[1,5-a]pyrimidin-6-yl)-2-(tert-butoxy)acetic acid] | < 6.00 | pEC50: 5.59
CCOc1ccccc1C(=O)Nc1cc2nc(C)c([C@H](OC(C)(C)C)C(=O)O)c(-c3cc(F)c4c(c3C)CCCO4)n2n1 [Example 19, (2S)-2-tert-butoxy-2-(2-(2-ethoxybenzamido)-7-(8-fluoro-5-methylchroman-6-yl)-5-methylpyrazolo[1,5-a]pyrimidin-6-yl)acetic acid] | > 7.00 | 
Cc1nc2cc(N3CCCCC3)nn2c(-c2cc(F)c3c(c2C)CCCO3)c1[C@H](OC(C)(C)C)C(=O)O [Example 50, (2S)-2-(tert-butoxy)-2-(7-(8-fluoro-5-methylchroman-6-yl)-5-methyl-2-(piperidin-1-yl)pyrazolo[1,5-a]pyrimidin-6-yl)acetic acid] | > 7.00 | pEC50: 7.22
Cc1nc2cc(NCCC(C)C)nn2c(-c2cc(F)c3c(c2C)CCCO3)c1[C@H](OC(C)(C)C)C(=O)O [Example 43, (2S)-2-(tert-butoxy)-2-(7-(8-fluoro-5-methylchroman-6-yl)-2-(isopentylamino)-5-methylpyrazolo[1,5-a]pyrimidin-6-yl)acetic acid] | > 7.00 | 
Cc1nc2cc(NC(=O)Cc3ccc(Cl)c(Cl)c3)nn2c(-c2cc(F)c3c(c2C)CCCO3)c1[C@H](OC(C)(C)C)C(=O)O [Example 26, (2S)-2-tert-butoxy-2-(2-(2-(3,4-dichlorophenyl)acetamido)-7-(8-fluoro-5-methylchroman-6-yl)-5-methylpyrazolo[1,5-a]pyrimidin-6-yl)acetic acid] | > 7.00 | 
Cc1nc2cc(NC(=O)CC3CCCC3)nn2c(-c2cc(F)c3c(c2C)CCCO3)c1[C@H](OC(C)(C)C)C(=O)O [Example 21, (2S)-2-tert-butoxy-2-(2-(2-cyclopentylacetamido)-7-(8-fluoro-5-methylchroman-6-yl)-5-methylpyrazolo[1,5-a]pyrimidin-6-yl)acetic acid] | > 7.00 | 
CCCCCC(=O)Nc1cc2nc(C)c([C@H](OC(C)(C)C)C(=O)O)c(-c3cc(F)c4c(c3C)CCCO4)n2n1 [Example 17, (2S)-2-tert-butoxy-2-(7-(8-fluoro-5-methylchroman-6-yl)-2-hexanamido-5-methylpyrazolo[1,5-a]pyrimidin-6-yl)acetic acid] | > 7.00 | 
Cc1nc2cc(N(C)CCCC3CCCC3)nn2c(-c2cc(F)c3c(c2C)CCCO3)c1[C@H](OC(C)(C)C)C(=O)O [Example 52, (2S)-2-(tert-butoxy)-2-(2-((3-cyclopentylpropyl)(methyl)amino)-7-(8-fluoro-5-methylchroman-6-yl)-5-methylpyrazolo[1,5-a]pyrimidin-6-yl)acetic acid] | > 7.00 | 
Cc1nc2cc(NC(=O)CCCc3ccccc3)nn2c(-c2cc(F)c3c(c2C)CCCO3)c1[C@H](OC(C)(C)C)C(=O)O [Example 12, (2S)-2-tert-butoxy-2-(7-(8-fluoro-5-methylchroman-6-yl)-5-methyl-2-(4-phenylbutanamido)pyrazolo[1,5-a]pyrimidin-6-yl)acetic acid] | > 7.00 | pEC50: 7.30
Cc1nc2cc(NC(=O)CC3CCCCC3)nn2c(-c2cc(F)c3c(c2C)CCCO3)c1[C@H](OC(C)(C)C)C(=O)O [Example 25, (2S)-2-tert-butoxy-2-(2-(2-cyclohexylacetamido)-7-(8-fluoro-5-methylchroman-6-yl)-5-methylpyrazolo[1,5-a]pyrimidin-6-yl)acetic acid] | > 7.00 | 
Cc1ccc(OC(=O)Nc2cc3nc(C)c([C@H](OC(C)(C)C)C(=O)O)c(-c4cc(F)c5c(c4C)CCCO5)n3n2)cc1 [Example 32, (2S)-2-(tert-butoxy)-2-(7-(8-fluoro-5-methylchroman-6-yl)-5-methyl-2-(((p-tolyloxy)carbonyl)amino)pyrazolo[1,5-a]pyrimidin-6-yl)acetic acid] |  | pEC50 (MT-2 cells infected with NL-RLuc virus, 5 days of incubation, luciferase, serum condition not specified, read-out: Activity): < 6.00; pEC50 (MT-2 cells infected with NL-RLuc virus, 5 days of incubation, luciferase, serum condition not specified, read-out: EC50): 5.19
Cc1nc2cc(NC(=O)CCC3CCCC3)nn2c(-c2cc(F)c3c(c2C)CCCO3)c1[C@H](OC(C)(C)C)C(=O)O [Example 2, (2S)-2-tert-butoxy-2-(2-(3-cyclopentylpropanamido)-7-(8-fluoro-5-methylchroman-6-yl)-5-methylpyrazolo[1,5-a]pyrimidin-6-yl)acetic acid] | > 7.00 | 
Cc1ccc(C(=O)Nc2cc3nc(C)c([C@H](OC(C)(C)C)C(=O)O)c(-c4cc(F)c5c(c4C)CCCO5)n3n2)cc1C [Example 10, (2S)-2-tert-butoxy-2-(2-(3,4-dimethylbenzamido)-7-(8-fluoro-5-methylchroman-6-yl)-5-methylpyrazolo[1,5-a]pyrimidin-6-yl)acetic acid] | > 7.00 | 
CCOc1cccc(C(=O)Nc2cc3nc(C)c([C@H](OC(C)(C)C)C(=O)O)c(-c4cc(F)c5c(c4C)CCCO5)n3n2)c1 [Example 14, (2S)-2-tert-butoxy-2-(2-(3-ethoxybenzamido)-7-(8-fluoro-5-methylchroman-6-yl)-5-methylpyrazolo[1,5-a]pyrimidin-6-yl)acetic acid] | > 7.00 | 
Cc1nc2cc(N)nn2c(-c2cc(F)c3c(c2C)CCCO3)c1[C@H](OC(C)(C)C)C(=O)O [Example 1, (2S)-2-(2-amino-7-(8-fluoro-5-methylchroman-6-yl)-5-methylpyrazolo[1,5-a]pyrimidin-6-yl)-2-tert-butoxyacetic acid] | < 6.00 | pEC50: 5.61
Cc1nc2cc(NC(=O)c3ccc4c(c3)-c3ccccc3C4=O)nn2c(-c2cc(F)c3c(c2C)CCCO3)c1[C@H](OC(C)(C)C)C(=O)O [Example 18, (2S)-2-tert-butoxy-2-(7-(8-fluoro-5-methylchroman-6-yl)-5-methyl-2-(9-oxo-9H-fluorene-3-carboxamido)pyrazolo[1,5-a]pyrimidin-6-yl)acetic acid] | 6.00 to 7.00 | 
Cc1nc2cc(NC(=O)c3cccc(F)c3)nn2c(-c2cc(F)c3c(c2C)CCCO3)c1[C@H](OC(C)(C)C)C(=O)O [Example 5, (2S)-2-tert-butoxy-2-(7-(8-fluoro-5-methylchroman-6-yl)-2-(3-fluorobenzamido)-5-methylpyrazolo[1,5-a]pyrimidin-6-yl)acetic acid] | > 7.00 | 
Cc1nc2cc(NC(=O)c3cccc(C#N)c3)nn2c(-c2cc(F)c3c(c2C)CCCO3)c1[C@H](OC(C)(C)C)C(=O)O [Example 8, (2S)-2-tert-butoxy-2-(2-(3-cyanobenzamido)-7-(8-fluoro-5-methylchroman-6-yl)-5-methylpyrazolo[1,5-a]pyrimidin-6-yl)acetic acid] | 6.00 to 7.00 | 
Cc1nc2cc(NC(=O)CCc3ccccc3)nn2c(-c2cc(F)c3c(c2C)CCCO3)c1[C@H](OC(C)(C)C)C(=O)O [Example 16, (2S)-2-tert-butoxy-2-(7-(8-fluoro-5-methylchroman-6-yl)-5-methyl-2-(3-phenylpropanamido)pyrazolo[1,5-a]pyrimidin-6-yl)acetic acid] | 6.00 to 7.00 | 
COc1cccc(C(=O)Nc2cc3nc(C)c([C@H](OC(C)(C)C)C(=O)O)c(-c4cc(F)c5c(c4C)CCCO5)n3n2)c1 [Example 6, (2S)-2-tert-butoxy-2-(7-(8-fluoro-5-methylchroman-6-yl)-2-(3-methoxybenzamido)-5-methylpyrazolo[1,5-a]pyrimidin-6-yl)acetic acid] | > 7.00 | 
Cc1nc2cc(NC(=O)COC3C[C@@H](C)CC[C@@H]3C(C)C)nn2c(-c2cc(F)c3c(c2C)CCCO3)c1[C@H](OC(C)(C)C)C(=O)O (stereo partly drawn) [Example 13, (2S)-2-tert-butoxy-2-(7-(8-fluoro-5-methylchroman-6-yl)-2-(2-((2R,5S)-2-isopropyl-5-methylcyclohexyloxy)acetamido)-5-methylpyrazolo[1,5-a]pyrimidin-6-yl)acetic acid] | > 7.00 | 
Cc1nc2cc(NC(=O)CCC3CCCCC3)nn2c(-c2cc(F)c3c(c2C)CCCO3)c1[C@H](OC(C)(C)C)C(=O)O [Example 28, (2S)-2-tert-butoxy-2-(2-(3-cyclohexylpropanamido)-7-(8-fluoro-5-methylchroman-6-yl)-5-methylpyrazolo[1,5-a]pyrimidin-6-yl)acetic acid] | > 7.00 | 
Cc1nc2cc(NC(=O)c3cc(C(C)(C)C)nn3C)nn2c(-c2cc(F)c3c(c2C)CCCO3)c1[C@H](OC(C)(C)C)C(=O)O [Example 11, (2S)-2-tert-butoxy-2-(2-(3-tert-butyl-1-methyl-1H-pyrazole-5-carboxamido)-7-(8-fluoro-5-methylchroman-6-yl)-5-methylpyrazolo[1,5-a]pyrimidin-6-yl)acetic acid] | > 7.00 | 
Cc1nc2cc(NC(=O)CCCOc3ccccc3)nn2c(-c2cc(F)c3c(c2C)CCCO3)c1[C@H](OC(C)(C)C)C(=O)O [Example 27, (2S)-2-tert-butoxy-2-(7-(8-fluoro-5-methylchroman-6-yl)-5-methyl-2-(4-phenoxybutanamido)pyrazolo[1,5-a]pyrimidin-6-yl)acetic acid] | 6.00 to 7.00 | 
Cc1nc2cc(N(CCC(C)C)CCC(C)C)nn2c(-c2cc(F)c3c(c2C)CCCO3)c1[C@H](OC(C)(C)C)C(=O)O [Example 44, (2S)-2-(tert-butoxy)-2-(2-(diisopentylamino)-7-(8-fluoro-5-methylchroman-6-yl)-5-methylpyrazolo[1,5-a]pyrimidin-6-yl)acetic acid] | < 6.00 | pEC50: 5.80
Cc1nc2cc(NC(=O)c3ccc4c(c3)OC(F)(F)O4)nn2c(-c2cc(F)c3c(c2C)CCCO3)c1[C@H](OC(C)(C)C)C(=O)O [Example 22, (2S)-2-tert-butoxy-2-(2-(2,2-difluorobenzo[d][1,3]-dioxole-5-carboxamido)-7-(8-fluoro-5-methylchroman-6-yl)-5-methylpyrazolo[1,5-a]pyrimidin-6-yl)acetic acid] | 6.00 to 7.00 | 
Cc1nc2cc(NCCCC3CCCC3)nn2c(-c2cc(F)c3c(c2C)CCCO3)c1[C@H](OC(C)(C)C)C(=O)O [Example 42, (2S)-2-(tert-butoxy)-2-(2-((3-cyclopentylpropyl)amino)-7-(8-fluoro-5-methylchroman-6-yl)-5-methylpyrazolo[1,5-a]pyrimidin-6-yl)acetic acid] | > 7.00 | 
